Results: PubChem BioAssay (NCI)
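Where inhibition never reached the appropriate level, the endpoint shown equals the highest concentration tested. Otherwise, values were interpolated linearly from a five-concentration, 48-hour dose response in 96-well plates. GI50 is the concentration that inhibits growth by half. Definition used: TGI = concentration required for complete inhibition of growth.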

Legend:
Assay in all cases: inhibition of tumour cell growth, NCI panel, 48 h
EKVX NSCLC = tested on: EKVX NSCLC
LOX IMVI melanoma = tested on: LOX IMVI melanoma
K-562 leukemia = tested on: K-562 leukemia
IGROV1 ovarian = tested on: IGROV1 ovarian
KM12 colon = tested on: KM12 colon
HOP-92 NSCLC = tested on: HOP-92 NSCLC
BT-549 breast = tested on: BT-549 breast
MDA-MB-435 = tested on: MDA-MB-435
T-47D breast = tested on: T-47D breast
MCF7 breast = tested on: MCF7 breast

| Structure (SMILES) | TGI (EKVX NSCLC) [µM] | TGI (LOX IMVI melanoma) [µM] | TGI (K-562 leukemia) [µM] | TGI (IGROV1 ovarian) [µM] | TGI (KM12 colon) [µM] | TGI (HOP-92 NSCLC) [µM] | GI50 (EKVX NSCLC) [µM] | GI50 (BT-549 breast) [µM] | TGI (BT-549 breast) [µM] | GI50 (MDA-MB-435) [µM] | TGI (MDA-MB-435) [µM] | GI50 (T-47D breast) [µM] | TGI (T-47D breast) [µM] | GI50 (KM12 colon) [µM] | GI50 (HOP-92 NSCLC) [µM] | GI50 (LOX IMVI melanoma) [µM] | GI50 (K-562 leukemia) [µM] | GI50 (IGROV1 ovarian) [µM] | GI50 (MCF7 breast) [µM] | TGI (MCF7 breast) [µM] |
| --- | --- | --- | --- | --- | --- | --- | --- | --- | --- | --- | --- | --- | --- | --- | --- | --- | --- | --- | --- | --- |
| N#CC(C(=N/O)/C(=N\O)C(C#N)c1ccccc1)c1ccccc1 (configuration not stated) | > 100 | > 100 | > 100 | > 100 | > 100 | > 100 | – | – | – | – | – | – | – | – | – | – | – | – | – | – |
| CCn1cc(C(=O)N/N=C/c2cccs2)c(=O)c2cc(F)c(N3CCNC(C)C3)c(F)c21 (configuration not stated) | 2.93 | – | – | – | 3.27 | 2.38 | 1.47 | 12.3 | 36.9 | 1.78 | 3.24 | 1.68 | 3.45 | 1.73 | 1.09 | – | – | – | – | – |
| O=C1C(Cl)=C(Cl)C(=O)N1c1cccc(C(F)(F)F)c1 | > 100 | > 100 | > 100 | > 100 | > 100 | > 100 | – | – | – | – | – | – | – | – | – | – | – | – | – | – |
| Cc1cc(-c2nc3n(c2/C=N/N=C(N)N)CCS3)c(C)s1 | 34.6 | 29.1 | 42.4 | – | 21.2 | – | 15.2 | 23.1 | 42.5 | 18.5 | 32.5 | 17.6 | 32.5 | 6.7 | – | 15 | 19.1 | – | – | – |
| C=C1C(=O)O[C@H]2[C@H]1CC/C(COC(=O)CCCCCCCC(=O)OC/C1=C/CC[C@@]3(C)O[C@H]3[C@H]3OC(=O)C(=C)[C@@H]3CC1)=C\CC[C@@]1(C)O[C@@H]21 | 8.87 | 2.95 | 10.8 | 5.92 | 4.26 | 5.07 | 2.55 | 1.59 | 3.45 | 2.59 | 7.33 | 2.3 | 8.26 | 1.95 | 2.16 | 1.48 | 0.927 | 2.22 | – | – |
| O=[N+]([O-])c1ccc(C2SCc3nc4ccccc4n32)cc1 (configuration not stated) | > 100 | > 100 | > 100 | 60.2 | > 100 | 91.3 | – | – | – | – | – | – | – | – | – | – | – | – | – | – |
| CCC[CH2][Sn]([CH2]CCC)([O]C(=O)c1cc(F)ccc1F)[O]C(=O)c1cc(F)ccc1F | 2.51 | 1.85 | 1.35 | 3.18 | 3.28 | 2.52 | 1.26 | – | – | – | – | – | – | 1.6 | 1.26 | 0.581 | 0.294 | 1.63 | – | – |
| COc1cc2c3c(n([C@@H]4CCOC4)c(=O)c2cc1OC)-c1cc2c(cc1C3=O)OCO2 | – | – | > 100 | > 100 | – | – | – | 0.0218 | > 100 | – | – | – | – | – | – | – | 0.0166 | 0.0537 | < 0.01 | > 100 |
| Cc1ccc(C)c(NC(=O)C(=O)C2C(=O)N(c3ccccc3)N=C2N)c1 (configuration not stated) | > 100 | > 100 | > 100 | > 100 | > 100 | > 100 | – | – | – | – | – | – | – | – | – | – | – | – | – | – |
| O=C1NC2C3CC(OCc4ccccc4)(OCc4ccccc4)C2OC3O1 (configuration not stated) | – | > 50 | > 50 | > 50 | > 50 | > 50 | – | – | – | – | – | – | – | – | – | – | – | – | – | – |
| O=C(O)/C(Cl)=C(Cl)/C=N/NC(=O)c1cc2ccccc2cc1O | > 100 | – | > 100 | > 100 | > 100 | > 100 | – | – | – | – | – | – | – | – | – | – | – | – | – | – |
| Cc1cc(Cl)ccc1N=C1NC(=O)C(CC(=O)Nc2cccc(C)c2C)S1 (configuration not stated) | > 100 | 80.6 | > 100 | > 100 | > 100 | 26.5 | – | – | – | – | – | – | – | – | – | – | – | – | – | – |
| COC(=O)c1ccc(C(=O)OC)c2nc3cc(Cl)ccc3nc12 | > 100 | > 100 | > 100 | > 100 | > 100 | > 100 | – | – | – | – | – | – | – | – | – | – | – | – | – | – |
| COc1cc(C2c3cc4c(cc3[C@@H](Nc3ccc([N+](=O)[O-])cc3)C3COC(=O)[C@H]23)OCO4)cc(OC)c1O (some centres not stated) | 17.2 | 6.67 | 39.4 | 24.3 | 6.42 | – | – | – | 6.39 | – | > 100 | – | – | – | 0.393 | 0.367 | – | – | – | > 43.1 |
| O=C(COC(=O)c1cccc2c(=O)c3ccccc3[nH]c12)Nc1ccc(Cl)cc1 | > 100 | > 100 | > 100 | > 100 | > 100 | > 100 | – | – | – | – | – | – | – | – | – | – | – | – | – | – |
| CCOC(=O)/C(C#N)=C\Sc1ccccc1 | > 100 | 21.4 | > 100 | 23.2 | > 100 | > 100 | – | – | – | – | – | – | – | – | – | – | – | – | – | – |
